Data published in patent publication US20150202196A1, “Methods of Using C-Met Modulators” (priority 2010, published 2015).

How the values were obtained:
[1] = system: human pancreatic adenocarcinomas; type: in vivo; conditions: for % of CD44+c-Met+ cancer stem cells in tumor: flow cytometry after 4 weeks treatment; for tumor growth during the 4 week period of treatment: subcutaneous tumor volume, weekly, FIG. 8B; for effect on cancer stem cell population (in words): CD44+c-Met+, flow cytometry; for tumor growth following cessation of treatment: versus untreated tumors
Procedure: Samples of human pancreatic adenocarcinomas were obtained. Within 60 minutes following surgical resection, tumors were suspended in sterile RPMI medium 1640 (available from Sigma-Aldrich®), mechanically dissociated using scissors, then minced with a sterile scalpel blade over ice to yield 2×2 mm pieces. The tumor pieces were washed with serum-free PBS before implantation. Eight-week-old male NOD/SCID mice were anesthetized using an i.p. injection of 100 mg/kg ketamine and 5 mg/kg xylazine. NOD/SCID mice are publically available from Charles River Laboratories International in Wilmington, Mass. A 5-mm incision was then made in the skin overlying the mid-abdomen, and three pieces of tumor were implanted subcutaneously. The skin incision was closed with absorbable suture. The mice were monitored weekly for tumor growth for 16 to 20 weeks. After establishment of xenografts, studies were performed on passage 2 tumors.
Xenograft tumors or primary human tumors were cut up into small pieces with scissors, and then minced completely using sterile scalpel blades. To obtain single cell suspensions, the resultant minced tumor pieces were mixed with ultra-pure collagenase IV (Worthington Biochemical, Lakewood, N.J.) in medium 199 (200 units of collagenase per ml) and allowed to incubate at 37° C. for 1 to 1.5 hours for enzymatic dissociation. The specimens were further mechanically dissociated every 10 minutes by pipetting with a 10-ml pipette. At the end of the incubation, cells were filtered through a 40-μm nylon mesh, washed with HBSS/20% FBS, and then washed twice with HBSS.
Sorted cells or bulk pancreatic tumor cells were washed with serum free HBSS and suspended in serum free-RPMI1640/Matrigel mixture (1:1 volume), followed by injection into the subcutaneous tissue of the right and left mid-abdominal area using a 27-gauge needle. In separate experiments, mice were anesthetized with an i.p. injection of 100 mg/kg ketamine and 5 mg/kg xylazine, and a small median laparotomy was performed. Five thousand sorted cells or 1-5×10^5 bulk tumor cells resuspended in PBS/Matrigel mixture (1:1) in a volume of 100 µl were injected into the tail of the pancreas using a 30-gauge needle. PBS stands for phosphate buffered saline, which can be obtained from Thermo Fisher Scientific Inc. Six mice were inoculated per test group. Animals then underwent autopsy, and tumor growth was accessed after 4 to 8 weeks. Tissues were fixed in formaldehyde and were examined histologically or dissociated to generate single cell suspensions for further study.
[…]. CD44 and c-Met are both markers on pancreatic cancer stem cells.
. Subcutaneous tumor volume was assessed weekly. […] Half of the mice in each group were euthanized 4 weeks after initiation of treatment, and the tumors were dissociated and examined using flow cytometry to determine the percentage of c-Met+/CD44+ cancer stem cells within the tumors. The remaining mice were kept for an additional 8 weeks following cessation of treatment, and tumor volume was measured weekly. […]. […]. […]
Tumor size was measured weekly. Three mice of each group were euthanized after 4 weeks treatment for analysis of cancer stem cells, and the other mice were followed to monitor tumor growth for an additional 8 weeks. […] In FIG. 8B, the average tumor size±SEM from three separate tumors is presented. FIG. 8C depicts a graph of CSC percentage in different treatment groups. The percentage of the c-Met+/CD44+ tumorigenic cancer cell population in the total cancer cell population is indicated for each treatment.

[2] = system: primary human pancreatic cancer; test: Orthotopic implants of primary human pancreatic cancer in the pancreatic tail of NOD/SCID mice: bioluminescent tumor growth and cancer stem cells; type: in vivo; conditions: for effect on cancer stem cell population (in words): CD44+CD24+ESA+; for effect on cancer stem cell population (in words) / % of CD44+CD24+ESA+ cancer stem cells in tumor: flow cytometry; for % of CD44+CD24+ESA+ cancer stem cells in tumor: table title says subcutaneous xenograft tumor, text cites it for orthotopic implants; for tumor growth during the 4 week treatment: orthotopic tumors, bioluminescent imaging, versus controls
Procedure: Sorted cells or bulk pancreatic tumor cells were washed with serum free HBSS and suspended in serum free-RPMI1640/Matrigel mixture (1:1 volume), followed by injection into the subcutaneous tissue of the right and left mid-abdominal area using a 27-gauge needle. In separate experiments, mice were anesthetized with an i.p. injection of 100 mg/kg ketamine and 5 mg/kg xylazine, and a small median laparotomy was performed. Five thousand sorted cells or 1-5×10^5 bulk tumor cells resuspended in PBS/Matrigel mixture (1:1) in a volume of 100 µl were injected into the tail of the pancreas using a 30-gauge needle. […] Animals then underwent autopsy, and tumor growth was accessed after 4 to 8 weeks.
To validate the findings with bioluminescent imaging, mice were euthanized with carbon dioxide inhalation, and autopsies were performed to assess the extent of primary tumor growth and metastasis.
The same three pancreatic cancers used for the subcutaneous tumor implantation experiments were infected with a lentivirus expressing luciferase to allow imaging in real time, and cells were injected into the pancreatic tail.
Tumor size and volume were measured weekly using Xenogen IVIS 200 imaging system throughout the experiment period.

[3] = Compound 1 30 mg/kg/day, GEM 100 mg/kg/twice weekly

Compound | % of CD44+c-Met+ cancer stem cells in tumor [1, 3] | tumor growth during the 4 week period of treatment [1] | increase of the c-Met+CD44+ population ([1]; subcutaneous tumors, 4 weeks treatment, GEM 100 mg/kg/twice weekly) | effect on cancer stem cell population (in words) ([1]; subcutaneous tumors) | tumor growth following cessation of treatment ([1]; subcutaneous tumors) | effect on cancer stem cell population (in words) [2] | % of CD44+CD24+ESA+ cancer stem cells in tumor [2] | tumor growth during the 4 week treatment [2] | decrease in CD44+c-Met+ cancer stem cell population ([1]; subcutaneous tumors, 4 weeks treatment, Compound 1 30 mg/kg/day, GEM 100 mg/kg/twice weekly)
Nc1ccn([C@@H]2O[C@H](CO)[C@@H](O)C2(F)F)c(=O)n1 [GEM, gemcitabine] | 4.34% | significantly inhibited tumor growth | 48±20% | increases in the total number of pancreatic cancer stem cells | grew more slowly than the untreated tumors | increases in the total number of pancreatic cancer stem cells | 4.3% | prevented tumor growth | –
COc1cc2nccc(Oc3ccc(NC(=O)C4(C(=O)Nc5ccc(F)cc5)CC4)cc3)c2cc1OC [Compound 1, N-(4-{[6,7-bis(methyloxy)quinolin-4-yl]oxy}phenyl)-N′-(4-fluorophenyl)cyclopropane-1,1-dicarboxamide] | 0.55% | significantly inhibited tumor growth | – | significantly depleted | grew more slowly than the untreated tumors | significantly depleted | 0.61% | prevented tumor growth | 83±3%
